# Source: article PMC5122408, “High throughput chemical library screening identifies a novel p110-δ inhibitor that potentiates the anti-myeloma effect of bortezomib” (Oncotarget, 2016)
# Legend:
# PKC2-α = PKC2-α (Homo sapiens, UniProt O00443); experiment: Kinase inhibitory profile; assay type: biochemical; details: Class II PI3Ks; 10-point concentration assays
# FGFR = experiment: Kinase inhibitory profile; assay type: biochemical; details: Other Clinically-relevant Kinases; 10-point concentration assays
# ERBB4 = ERBB4 (Homo sapiens, UniProt Q15303); experiment: Kinase inhibitory profile; assay type: biochemical; details: Other Clinically-relevant Kinases; 10-point concentration assays
# CCRF-CEM = experiment: NCI-60 panel cell growth screen; assay type: cell-based, human; details: CCRF-CEM (Leukemia)
# K-562 = experiment: NCI-60 panel cell growth screen; assay type: cell-based, human; details: K-562 (Leukemia)
# MOLT-4 = experiment: NCI-60 panel cell growth screen; assay type: cell-based, human; details: MOLT-4 (Leukemia)
# RPMI-8226 = experiment: NCI-60 panel cell growth screen; assay type: cell-based, human; details: RPMI-8226 (Leukemia)
# SR = experiment: NCI-60 panel cell growth screen; assay type: cell-based, human; details: SR (Leukemia)
# NCI-H226 = experiment: NCI-60 panel cell growth screen; assay type: cell-based, human; details: NCI-H226 (NSCLC)
# NCI-H332M = experiment: NCI-60 panel cell growth screen; assay type: cell-based, human; details: NCI-H332M (NSCLC)
# NCI-H460 = experiment: NCI-60 panel cell growth screen; assay type: cell-based, human; details: NCI-H460 (NSCLC)
# NCI-H522 = experiment: NCI-60 panel cell growth screen; assay type: cell-based, human; details: NCI-H522 (NSCLC)
# HT29 = experiment: NCI-60 panel cell growth screen; assay type: cell-based, human; details: HT29 (Colon cancer)
# SF-268 = experiment: NCI-60 panel cell growth screen; assay type: cell-based, human; details: SF-268 (CNS Cancer)
# SNB-19 = experiment: NCI-60 panel cell growth screen; assay type: cell-based, human; details: SNB-19 (CNS Cancer)
# SNB-75 = experiment: NCI-60 panel cell growth screen; assay type: cell-based, human; details: SNB-75 (CNS Cancer)
# BMSCs = experiment: XTT viability of BMSCs; assay type: cell-based; details: 72 h, XTT assay
# IL-6 = IL-6 ELISA, MM cells co-cultured with BMSCs; assay type: cell-based, human
# AKT = experiment: Immunoblot of AKT phosphorylation in MM cells; assay type: cell-based; details: DT97 500 nm or 1 uM for 48 h
# p110-α = p110-α (Homo sapiens, UniProt P42336); experiment: Kinase inhibitory profile / PIP3 production; parameters: Inhibitory profile (kinase inhibition): key to the marks not given beside the values
# p110-γ = p110-γ (Homo sapiens, UniProt P48736); experiment: Kinase inhibitory profile / PIP3 production
# Experimental: To directly assess PI3K activity, PI3K was isolated by immunoprecipitation using an antibody to the p85 adapter subunit and the ability of the co-precipitated catalytic p110 subunit to convert PIP2 to PIP3 in a kinase reaction assessed by measuring the amount of PIP3 generated using a competitive ELISA [40, 41]. […] Lysates were centrifuged at 13,000 × rpm for 10 min and supernatants stored at −80°C. Frozen lysates were thawed and PI3K immunoprecipitated with 5 μl anti-PI3K p85 (Cell Signaling Technology, Danvers, MA) for 1 h at 4°C, followed by the addition of 60 μl of a 50% slurry of Protein A agarose beads for 1 h at 4°C. The immunoprecipitate was collected by centrifugation at 13,000 × rpm for 10 sec, washed 3 times in buffer A + 1% NP40, thrice with 0.1 M Tris-HCl, pH 7.4, 5 mM LiCl, 0.1 mM Na orthovanadate and twice with 10 mM Tris-HCl, pH 7.4, 150 mM NaCl, 5 mM ethylenediaminetetraacetic acid (EDTA), 0.1 mM Na orthovanadate. […] Reactions were incubated for 3 h at 37°C with 40 pmol PIP2 (Echelon Biosciences, Salt Lake City, UT). Reactions were stopped with EDTA (5 mM) and centrifuged at 13,000 × rpm at 4°C. Supernatants were transferred to a microtitre plate for a competitive ELISA (Echelon Biosciences) to quantify PIP3 generated. […] Absorbance was measured (450 nm) and PIP3 quantified using a standard curve generated with experimental samples and plotted on a log scale.
# [1] = read-out: LC50 (the source's name)
# [2] = Class I PI3Ks, 10-point concentration assays
# p110-γ, sequence (P48736 whole entry): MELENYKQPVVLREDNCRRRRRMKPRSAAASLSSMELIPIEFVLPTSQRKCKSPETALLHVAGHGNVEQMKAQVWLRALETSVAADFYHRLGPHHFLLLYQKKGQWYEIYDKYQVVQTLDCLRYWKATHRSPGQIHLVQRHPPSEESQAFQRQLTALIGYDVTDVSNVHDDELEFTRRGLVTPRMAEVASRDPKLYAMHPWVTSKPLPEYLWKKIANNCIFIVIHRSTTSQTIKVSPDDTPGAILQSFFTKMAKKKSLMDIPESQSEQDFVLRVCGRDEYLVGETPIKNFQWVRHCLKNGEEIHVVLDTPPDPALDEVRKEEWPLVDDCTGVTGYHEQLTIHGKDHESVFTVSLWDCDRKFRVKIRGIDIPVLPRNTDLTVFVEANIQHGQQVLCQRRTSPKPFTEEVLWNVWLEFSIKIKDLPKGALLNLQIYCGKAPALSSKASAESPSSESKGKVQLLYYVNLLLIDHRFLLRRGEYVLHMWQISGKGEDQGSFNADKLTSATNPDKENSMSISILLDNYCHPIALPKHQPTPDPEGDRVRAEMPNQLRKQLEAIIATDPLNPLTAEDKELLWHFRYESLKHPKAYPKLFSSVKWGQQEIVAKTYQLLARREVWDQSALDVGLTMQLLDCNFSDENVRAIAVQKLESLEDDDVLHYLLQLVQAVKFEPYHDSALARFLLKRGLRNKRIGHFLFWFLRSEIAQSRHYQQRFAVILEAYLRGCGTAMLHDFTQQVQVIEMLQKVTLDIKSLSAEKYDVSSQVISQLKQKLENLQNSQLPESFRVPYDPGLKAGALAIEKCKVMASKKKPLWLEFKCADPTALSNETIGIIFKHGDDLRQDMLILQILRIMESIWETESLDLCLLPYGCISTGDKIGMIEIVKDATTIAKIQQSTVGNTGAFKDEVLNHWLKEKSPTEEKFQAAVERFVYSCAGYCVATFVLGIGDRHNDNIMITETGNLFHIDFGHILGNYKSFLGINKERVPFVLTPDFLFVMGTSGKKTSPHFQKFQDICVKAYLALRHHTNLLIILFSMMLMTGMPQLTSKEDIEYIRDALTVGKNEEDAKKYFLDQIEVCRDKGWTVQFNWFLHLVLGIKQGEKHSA
# p110-α, sequence (P42336 whole entry): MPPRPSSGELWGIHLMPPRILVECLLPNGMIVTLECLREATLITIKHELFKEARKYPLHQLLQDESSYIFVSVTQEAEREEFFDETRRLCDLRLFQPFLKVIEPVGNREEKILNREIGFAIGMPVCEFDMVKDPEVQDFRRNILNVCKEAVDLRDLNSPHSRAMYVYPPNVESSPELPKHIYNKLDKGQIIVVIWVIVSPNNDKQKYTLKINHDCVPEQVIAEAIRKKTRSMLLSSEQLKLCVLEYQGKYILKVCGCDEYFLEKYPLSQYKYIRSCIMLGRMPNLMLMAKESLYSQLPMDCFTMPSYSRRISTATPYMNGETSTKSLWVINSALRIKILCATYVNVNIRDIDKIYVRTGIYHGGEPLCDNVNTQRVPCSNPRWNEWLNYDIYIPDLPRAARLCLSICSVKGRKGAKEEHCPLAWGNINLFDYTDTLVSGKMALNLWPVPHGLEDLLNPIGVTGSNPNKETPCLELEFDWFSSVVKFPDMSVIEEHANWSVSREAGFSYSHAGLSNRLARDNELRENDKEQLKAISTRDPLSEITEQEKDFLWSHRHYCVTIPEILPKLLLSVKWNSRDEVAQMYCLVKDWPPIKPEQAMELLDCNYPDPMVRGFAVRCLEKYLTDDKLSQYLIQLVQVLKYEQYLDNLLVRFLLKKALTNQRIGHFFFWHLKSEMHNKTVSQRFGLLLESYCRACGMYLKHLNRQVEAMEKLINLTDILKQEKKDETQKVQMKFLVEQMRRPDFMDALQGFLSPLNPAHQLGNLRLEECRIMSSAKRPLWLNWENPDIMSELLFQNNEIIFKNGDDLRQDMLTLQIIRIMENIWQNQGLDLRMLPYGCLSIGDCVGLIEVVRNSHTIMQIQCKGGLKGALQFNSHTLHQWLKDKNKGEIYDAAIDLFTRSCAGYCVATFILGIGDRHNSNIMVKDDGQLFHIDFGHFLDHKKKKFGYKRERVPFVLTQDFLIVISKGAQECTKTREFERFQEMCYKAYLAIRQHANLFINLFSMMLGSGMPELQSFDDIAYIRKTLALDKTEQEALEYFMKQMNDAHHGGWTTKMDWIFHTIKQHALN
# p110-α, sequence (P27986 whole entry partner): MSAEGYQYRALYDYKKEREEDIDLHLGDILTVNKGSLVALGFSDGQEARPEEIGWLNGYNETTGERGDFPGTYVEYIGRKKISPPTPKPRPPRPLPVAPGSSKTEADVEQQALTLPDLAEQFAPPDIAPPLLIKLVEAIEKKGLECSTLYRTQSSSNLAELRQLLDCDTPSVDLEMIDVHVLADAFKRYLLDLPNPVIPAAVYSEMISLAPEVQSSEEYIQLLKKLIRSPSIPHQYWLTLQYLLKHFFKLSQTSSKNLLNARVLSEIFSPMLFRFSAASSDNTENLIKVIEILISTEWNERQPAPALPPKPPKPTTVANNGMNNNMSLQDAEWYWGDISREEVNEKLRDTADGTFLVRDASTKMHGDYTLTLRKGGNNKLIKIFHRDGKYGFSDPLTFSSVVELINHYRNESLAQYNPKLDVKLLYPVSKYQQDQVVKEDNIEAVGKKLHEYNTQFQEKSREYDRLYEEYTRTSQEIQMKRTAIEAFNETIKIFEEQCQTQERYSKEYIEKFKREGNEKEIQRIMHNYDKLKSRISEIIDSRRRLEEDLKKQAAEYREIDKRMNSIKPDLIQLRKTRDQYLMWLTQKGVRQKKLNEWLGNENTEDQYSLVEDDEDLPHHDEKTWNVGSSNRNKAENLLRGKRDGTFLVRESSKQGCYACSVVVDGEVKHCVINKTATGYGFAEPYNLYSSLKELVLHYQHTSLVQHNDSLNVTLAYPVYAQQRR
# ERBB4, sequence (Q15303 26-1308): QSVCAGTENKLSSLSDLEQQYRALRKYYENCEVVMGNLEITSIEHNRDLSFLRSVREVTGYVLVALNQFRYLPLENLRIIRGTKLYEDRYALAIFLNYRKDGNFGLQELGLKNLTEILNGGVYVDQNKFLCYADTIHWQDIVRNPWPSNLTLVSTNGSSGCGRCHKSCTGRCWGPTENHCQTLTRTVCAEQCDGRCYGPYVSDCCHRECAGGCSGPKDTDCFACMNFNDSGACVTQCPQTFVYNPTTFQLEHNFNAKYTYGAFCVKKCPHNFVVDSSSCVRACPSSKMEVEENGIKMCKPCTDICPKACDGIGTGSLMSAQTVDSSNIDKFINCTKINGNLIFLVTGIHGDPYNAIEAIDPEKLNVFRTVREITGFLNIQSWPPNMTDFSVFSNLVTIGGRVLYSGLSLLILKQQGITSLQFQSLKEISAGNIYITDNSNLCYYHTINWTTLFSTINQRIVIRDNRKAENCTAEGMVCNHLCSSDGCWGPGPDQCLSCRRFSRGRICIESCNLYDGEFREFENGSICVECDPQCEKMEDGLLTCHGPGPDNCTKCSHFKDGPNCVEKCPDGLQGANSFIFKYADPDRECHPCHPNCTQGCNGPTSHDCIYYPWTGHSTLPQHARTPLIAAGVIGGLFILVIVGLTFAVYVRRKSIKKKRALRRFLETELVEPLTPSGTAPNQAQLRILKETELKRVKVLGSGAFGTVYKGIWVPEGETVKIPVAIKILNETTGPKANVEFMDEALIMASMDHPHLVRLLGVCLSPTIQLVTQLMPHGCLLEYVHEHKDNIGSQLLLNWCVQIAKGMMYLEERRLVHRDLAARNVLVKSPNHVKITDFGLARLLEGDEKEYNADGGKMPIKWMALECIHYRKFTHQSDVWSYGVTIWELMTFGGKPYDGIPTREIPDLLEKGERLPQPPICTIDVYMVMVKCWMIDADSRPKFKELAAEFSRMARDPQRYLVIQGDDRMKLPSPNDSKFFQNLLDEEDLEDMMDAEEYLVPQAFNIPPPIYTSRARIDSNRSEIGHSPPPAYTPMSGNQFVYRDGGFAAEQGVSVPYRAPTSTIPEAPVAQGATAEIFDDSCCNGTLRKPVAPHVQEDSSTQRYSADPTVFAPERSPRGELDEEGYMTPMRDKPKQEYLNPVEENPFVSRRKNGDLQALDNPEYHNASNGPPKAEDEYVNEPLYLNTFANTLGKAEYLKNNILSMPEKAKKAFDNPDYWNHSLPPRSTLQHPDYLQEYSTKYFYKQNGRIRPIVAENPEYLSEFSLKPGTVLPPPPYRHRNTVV
substance,measurement,setting,value
N-[4-hydroxy-3-(8-quinolinylthio)-1-naphthyl]benzenesulfonamide [DT97],Inhibitory profile (kinase inhibition),PKC2-α,none
same,Inhibitory profile (kinase inhibition),FGFR,none
same,Inhibitory profile (kinase inhibition),ERBB4,+
same,GI50,CCRF-CEM,426 nM
same,TGI,CCRF-CEM,1.60E-5
same,Percent Growth,CCRF-CEM; log concentration −4.0,−7%
same,Percent Growth,CCRF-CEM; log concentration −5.0,2%
same,Percent Growth,CCRF-CEM; log concentration −6.0,17%
same,Percent Growth,CCRF-CEM; log concentration −7.0,106%
same,Percent Growth,CCRF-CEM; log concentration −8.0,104%
same,CC50,CCRF-CEM; [1],> 100000 nM
same,GI50,K-562,929 nM
same,TGI,K-562,1.65E-5
same,Percent Growth,K-562; log concentration −4.0,−12%
same,Percent Growth,K-562; log concentration −5.0,3%
same,Percent Growth,K-562; log concentration −6.0,48%
same,Percent Growth,K-562; log concentration −7.0,111%
same,Percent Growth,K-562; log concentration −8.0,108%
same,CC50,K-562; [1],> 100000 nM
same,GI50,MOLT-4,546 nM
same,LC50,MOLT-4,> 100000 nM
same,TGI,MOLT-4,5.53E-6
same,Percent Growth,MOLT-4; log concentration −4.0,−28%
same,Percent Growth,MOLT-4; log concentration −5.0,9%
same,Percent Growth,MOLT-4; log concentration −6.0,27%
same,Percent Growth,MOLT-4; log concentration −7.0,116%
same,Percent Growth,MOLT-4; log concentration −8.0,111%
same,GI50,RPMI-8226,2380 nM
same,TGI,RPMI-8226,7.90E-6
same,Percent Growth,RPMI-8226; log concentration −4.0,−9%
same,Percent Growth,RPMI-8226; log concentration −5.0,−10%
same,Percent Growth,RPMI-8226; log concentration −6.0,86%
same,Percent Growth,RPMI-8226; log concentration −7.0,92%
same,Percent Growth,RPMI-8226; log concentration −8.0,101%
same,CC50,RPMI-8226; [1],> 100000 nM
same,GI50,SR,426 nM
same,TGI,SR,1.72E-5
same,Percent Growth,SR; log concentration −4.0,−15%
same,Percent Growth,SR; log concentration −5.0,5%
same,Percent Growth,SR; log concentration −6.0,13%
same,Percent Growth,SR; log concentration −7.0,113%
same,Percent Growth,SR; log concentration −8.0,109%
same,CC50,SR; [1],> 100000 nM
same,GI50,NCI-H226,2450 nM
same,TGI,NCI-H226,2.54E-5
same,Percent Growth,NCI-H226; log concentration −4.0,−40%
same,Percent Growth,NCI-H226; log concentration −5.0,27%
same,Percent Growth,NCI-H226; log concentration −6.0,65%
same,Percent Growth,NCI-H226; log concentration −7.0,94%
same,Percent Growth,NCI-H226; log concentration −8.0,92%
same,GI50,NCI-H332M,2310 nM
same,LC50,NCI-H332M,39400 nM
same,TGI,NCI-H332M,1.37E-5
same,Percent Growth,NCI-H332M; log concentration −4.0,−94%
same,Percent Growth,NCI-H332M; log concentration −5.0,15%
same,Percent Growth,NCI-H332M; log concentration −6.0,70%
same,Percent Growth,NCI-H332M; log concentration −7.0,94%
same,Percent Growth,NCI-H332M; log concentration −8.0,94%
same,GI50,NCI-H460,499 nM
same,TGI,NCI-H460,1.37E-5
same,Percent Growth,NCI-H460; log concentration −4.0,−48%
same,Percent Growth,NCI-H460; log concentration −5.0,7%
same,Percent Growth,NCI-H460; log concentration −6.0,29%
same,Percent Growth,NCI-H460; log concentration −7.0,98%
same,Percent Growth,NCI-H460; log concentration −8.0,101%
same,GI50,NCI-H522,2120 nM
same,TGI,NCI-H522,8.17E-6
same,Percent Growth,NCI-H522; log concentration −4.0,−48%
same,Percent Growth,NCI-H522; log concentration −5.0,−7%
same,Percent Growth,NCI-H522; log concentration −6.0,68%
same,Percent Growth,NCI-H522; log concentration −7.0,95%
same,Percent Growth,NCI-H522; log concentration −8.0,95%
same,GI50,HT29,2420 nM
same,TGI,HT29,1.44E-5
same,Percent Growth,HT29; log concentration −4.0,−44%
same,Percent Growth,HT29; log concentration −5.0,8%
same,Percent Growth,HT29; log concentration −6.0,76%
same,Percent Growth,HT29; log concentration −7.0,108%
same,Percent Growth,HT29; log concentration −8.0,103%
same,CC50,HT29; [1],> 100000 nM
same,GI50,SF-268,1480 nM
same,TGI,SF-268,1.28E-5
same,Percent Growth,SF-268; log concentration −4.0,−68%
same,Percent Growth,SF-268; log concentration −5.0,8%
same,Percent Growth,SF-268; log concentration −6.0,59%
same,Percent Growth,SF-268; log concentration −7.0,100%
same,Percent Growth,SF-268; log concentration −8.0,98%
same,CC50,SF-268; [1],57700 nM
same,GI50,SNB-19,1980 nM
same,TGI,SNB-19,2.14E-5
same,Percent Growth,SNB-19; log concentration −4.0,−59%
same,Percent Growth,SNB-19; log concentration −5.0,29%
same,Percent Growth,SNB-19; log concentration −6.0,59%
same,Percent Growth,SNB-19; log concentration −7.0,94%
same,Percent Growth,SNB-19; log concentration −8.0,95%
same,CC50,SNB-19; [1],78300 nM
same,GI50,SNB-75,3230 nM
same,TGI,SNB-75,1.69E-5
same,Percent Growth,SNB-75; log concentration −4.0,−100%
same,Percent Growth,SNB-75; log concentration −5.0,29%
same,Percent Growth,SNB-75; log concentration −6.0,75%
same,Percent Growth,SNB-75; log concentration −7.0,73%
same,Percent Growth,SNB-75; log concentration −8.0,76%
same,CC50,SNB-75; [1],41200 nM
same,viability,BMSCs,did not significantly reduce the viability
same,production of Il-6,IL-6,induction was inhibited
same,phosphorylation of AKT at Ser308/Thr473,AKT,reduced the phosphorylation
same,Inhibitory profile (kinase inhibition),p110-α; [2],++
same,production of PIP3 (dose-dependent effect),"p110-α; p110-α isoform, Figure 4B",weaker activity
same,Inhibitory profile (kinase inhibition),p110-γ; [2],none
same,production of PIP3 (dose-dependent effect),"p110-γ; p110-γ isoform, Figure 4B",no effect
